Where two headings read alike, the source gives them in different places. One block for each compound: values may come before it.
Columns and labels:
[1] = molecular target: T1, TCPTP (Homo sapiens, UniProt P17706); experiment: TCPTP inhibition assay with fluorogenic substrates; format: biochemical; conditions: for IC50: pH 7.1
T1 sequence (P17706 5-275 limits assumed): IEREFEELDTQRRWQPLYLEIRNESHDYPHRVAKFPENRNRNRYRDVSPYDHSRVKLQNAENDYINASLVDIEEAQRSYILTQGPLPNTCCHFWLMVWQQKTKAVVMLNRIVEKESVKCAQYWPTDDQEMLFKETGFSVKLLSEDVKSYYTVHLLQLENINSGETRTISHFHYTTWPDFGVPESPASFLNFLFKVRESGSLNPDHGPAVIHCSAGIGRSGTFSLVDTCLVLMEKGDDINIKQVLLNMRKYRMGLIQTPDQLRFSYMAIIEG

[2] = molecular target: T2, PTP1B (Homo sapiens, UniProt P18031); experiment: PTP1B inhibition assay with fluorogenic substrates; format: biochemical; conditions: for IC50: pH 7.1
T2 sequence (P18031 3-277 limits assumed): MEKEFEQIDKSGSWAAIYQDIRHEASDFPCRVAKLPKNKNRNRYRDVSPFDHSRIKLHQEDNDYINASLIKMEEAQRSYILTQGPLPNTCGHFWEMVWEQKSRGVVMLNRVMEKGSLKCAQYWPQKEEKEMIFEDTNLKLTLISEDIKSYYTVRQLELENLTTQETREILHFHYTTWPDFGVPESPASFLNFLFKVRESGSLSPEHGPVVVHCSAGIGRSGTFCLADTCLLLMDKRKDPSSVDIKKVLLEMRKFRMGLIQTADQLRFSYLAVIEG

[3] = test system: LYP; experiment: Intracellular LYP inhibition in JTAg cells, anti-pLck; format: cell-based, human; conditions: JTAg cells, TCR stimulated (C305, 2 min); 50 µM of 17 and 34, 25 µM of 39, 1 h
[4] = molecular target: T3, CD45 (Homo sapiens, UniProt P08575); experiment: Intracellular CD45 inhibition in JTAg cells, anti-pLck; format: cell-based; conditions: JTAg cells; 50 µM of 17 and 34, 25 µM of 39, 1 h
T3 sequence (P08575 26-1306): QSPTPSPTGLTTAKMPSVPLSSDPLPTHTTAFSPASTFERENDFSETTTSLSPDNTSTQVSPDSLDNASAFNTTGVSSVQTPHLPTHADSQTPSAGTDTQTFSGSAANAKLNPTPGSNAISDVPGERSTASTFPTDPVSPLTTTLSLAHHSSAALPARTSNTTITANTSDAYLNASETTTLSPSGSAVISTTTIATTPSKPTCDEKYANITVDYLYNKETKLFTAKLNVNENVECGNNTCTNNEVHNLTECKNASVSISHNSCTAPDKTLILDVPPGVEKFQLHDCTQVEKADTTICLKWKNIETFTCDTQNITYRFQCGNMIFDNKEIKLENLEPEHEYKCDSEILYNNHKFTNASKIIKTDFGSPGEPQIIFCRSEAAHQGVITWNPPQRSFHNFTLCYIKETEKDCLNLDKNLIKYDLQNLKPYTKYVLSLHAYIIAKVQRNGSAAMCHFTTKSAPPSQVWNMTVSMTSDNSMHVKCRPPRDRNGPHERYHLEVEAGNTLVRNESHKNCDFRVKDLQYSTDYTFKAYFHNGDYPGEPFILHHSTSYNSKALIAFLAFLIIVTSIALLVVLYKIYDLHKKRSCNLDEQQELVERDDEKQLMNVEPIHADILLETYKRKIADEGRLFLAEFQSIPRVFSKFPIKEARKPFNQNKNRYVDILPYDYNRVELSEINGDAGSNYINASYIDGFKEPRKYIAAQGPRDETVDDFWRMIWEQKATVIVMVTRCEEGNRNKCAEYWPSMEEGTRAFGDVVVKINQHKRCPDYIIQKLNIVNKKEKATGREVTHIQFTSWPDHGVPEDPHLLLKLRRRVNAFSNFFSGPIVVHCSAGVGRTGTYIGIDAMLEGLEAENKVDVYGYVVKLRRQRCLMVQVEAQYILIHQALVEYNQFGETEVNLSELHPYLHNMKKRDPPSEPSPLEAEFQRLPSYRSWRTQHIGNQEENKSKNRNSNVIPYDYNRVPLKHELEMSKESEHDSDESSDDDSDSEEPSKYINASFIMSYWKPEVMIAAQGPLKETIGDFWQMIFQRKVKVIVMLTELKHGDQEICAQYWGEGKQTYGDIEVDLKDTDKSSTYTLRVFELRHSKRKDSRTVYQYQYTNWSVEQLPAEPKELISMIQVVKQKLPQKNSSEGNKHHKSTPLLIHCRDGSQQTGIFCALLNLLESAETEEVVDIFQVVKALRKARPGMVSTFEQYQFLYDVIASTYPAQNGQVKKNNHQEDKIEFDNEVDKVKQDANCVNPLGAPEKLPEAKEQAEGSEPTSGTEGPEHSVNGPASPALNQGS

[5] = molecular target: T4, LYP (Homo sapiens, UniProt Q9Y2R2); experiment: LYP inhibition assay with fluorogenic substrates; format: biochemical; conditions: for selectivity for LYP over PTP-PEST in dose-response screens: in vitro, Table 1; for LYP versus PTP-PEST inhibition in comparative library screen: nominal 5 µM, DiFMUP and peptide 1; for IC50: pH 6.5
T4 sequence (Q9Y2R2 2-309): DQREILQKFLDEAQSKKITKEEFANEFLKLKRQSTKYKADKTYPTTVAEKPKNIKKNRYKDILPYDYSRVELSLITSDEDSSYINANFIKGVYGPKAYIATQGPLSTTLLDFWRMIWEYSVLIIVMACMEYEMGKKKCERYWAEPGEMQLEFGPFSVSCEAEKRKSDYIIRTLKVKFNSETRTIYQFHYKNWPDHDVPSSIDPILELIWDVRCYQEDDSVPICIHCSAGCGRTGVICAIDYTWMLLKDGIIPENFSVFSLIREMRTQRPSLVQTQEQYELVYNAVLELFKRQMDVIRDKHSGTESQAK

[6] = molecular target: T5, CD45 (Homo sapiens, UniProt P08575); experiment: CD45 counterscreen; format: biochemical; conditions: read-out: IC50 CD45 (DiFMUP)
T5 sequence (P08575 653-912 limits assumed): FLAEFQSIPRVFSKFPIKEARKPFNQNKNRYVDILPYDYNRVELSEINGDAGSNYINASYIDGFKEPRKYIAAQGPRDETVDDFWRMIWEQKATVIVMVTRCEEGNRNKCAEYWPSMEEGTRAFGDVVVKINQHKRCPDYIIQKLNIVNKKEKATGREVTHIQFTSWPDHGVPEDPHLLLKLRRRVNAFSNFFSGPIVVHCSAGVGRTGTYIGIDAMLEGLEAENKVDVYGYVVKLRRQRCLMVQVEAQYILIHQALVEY

[7] = molecular target: T6, PTP-PEST (Homo sapiens, UniProt Q05209); experiment: PTP-PEST inhibition assay with fluorogenic substrates; format: biochemical; conditions: pH 6.5
T6 sequence (Q05209 2-323): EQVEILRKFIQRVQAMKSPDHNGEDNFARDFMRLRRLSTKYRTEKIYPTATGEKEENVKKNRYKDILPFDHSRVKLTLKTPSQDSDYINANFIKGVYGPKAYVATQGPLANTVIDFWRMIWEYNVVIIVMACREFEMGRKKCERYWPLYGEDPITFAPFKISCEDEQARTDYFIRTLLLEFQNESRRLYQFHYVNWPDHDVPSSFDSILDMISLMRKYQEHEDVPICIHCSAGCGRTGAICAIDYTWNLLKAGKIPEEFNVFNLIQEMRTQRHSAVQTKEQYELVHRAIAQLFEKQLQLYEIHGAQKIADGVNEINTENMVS

[8] = molecular target: T7, HePTP (Homo sapiens, UniProt P35236); experiment: HePTP counterscreen; format: biochemical; conditions: read-out: IC50 HePTP (DiFMUP)
T7 sequence (P35236 65-360): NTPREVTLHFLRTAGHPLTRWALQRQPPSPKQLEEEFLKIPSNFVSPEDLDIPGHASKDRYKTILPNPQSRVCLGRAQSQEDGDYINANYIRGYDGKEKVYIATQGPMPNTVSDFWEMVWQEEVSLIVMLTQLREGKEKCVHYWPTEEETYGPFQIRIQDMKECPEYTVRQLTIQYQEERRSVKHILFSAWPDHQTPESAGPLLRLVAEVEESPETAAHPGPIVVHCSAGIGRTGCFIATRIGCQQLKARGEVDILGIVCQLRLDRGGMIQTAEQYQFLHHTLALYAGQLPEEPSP

[9] = read-out: IC50 LYP (DiFMUP), substrate DiFMUP 1.5 µM
[10] = read-out: IC50 LYP (peptide 1), substrate peptide 1 10 µM
[11] = read-out: IC50 PEST (DiFMUP), substrate DiFMUP 1.5 µM
[12] = read-out: IC50 PEST (peptide 1), substrate peptide 1 10 µM

IC50 ([1]; read-out: IC50 TCPTP (DiFMUP), substrate DiFMUP 1.5 µM): 6.7 ± 0.2 µM
IC50 ([1]; read-out: IC50 TCPTP (peptide 2), substrate peptide 2 60 µM): 57 ± 1 µM
selectivity between PTP1B and TCPTP in dose-response screens ([2]; Table 2): no significant selectivity with DiFMUP
PTP1B inhibition in library screen, peptide 2 versus DiFMUP ([2]; nominal 5 µM): the reverse seems to be true
IC50 ([2]; read-out: IC50 PTP1B (DiFMUP), substrate DiFMUP 1.5 µM): 7.5 ± 0.2 µM
IC50 ([2]; read-out: IC50 PTP1B (peptide 2), substrate peptide 2 60 µM): 5.4 ± 0.3 µM
selectivity for PTP1B (over TCPTP) ([2]; with peptide 2 as substrate): ~10 fold
SMILES: Fc1c(F)c(F)c([PH]([Au][Cl])(c2c(F)c(F)c(F)c(F)c2F)c2c(F)c(F)c(F)c(F)c2F)c(F)c1F [Compound 40]

SMILES: CCP(CC)CC.[Au+].[Cl-] [Compound 39]
phosphorylation of Lck at Y394 (LYP activity in cells) [3]: increase in phosphorylation at Y394
phosphorylation of Lck at Y505 (CD45 activity in cells) [4]: increase in this band
selectivity for LYP over PTP-PEST in dose-response screens [5]: selective for LYP over the ~ 70% identical PTP-PEST
LYP versus PTP-PEST inhibition in comparative library screen [5]: appears LYP selective with peptide 1, but not with DiFMUP
IC50 [5, 9]: 33 ± 3 µM
IC50 [5, 10]: 26 ± 2 µM
selectivity for LYP over PTP-PEST ([5]; with peptide 1 as substrate): ~4 fold
IC50 ([6]; substrate DiFMUP): 33 ± 3 µM
IC50 [7, 11]: > 150 µM
IC50 [7, 12]: 93 ± 9 µM
IC50 ([8]; substrate DiFMUP): 120 ± 5 µM

SMILES: [Cl][Au][PH](C1CCCCC1)(C1CCCCC1)C1CCCCC1 [Compound 25, Tricyclohexylphosphine-Au(I)-Cl]
LYP versus PTP-PEST inhibition in comparative library screen [5]: appear LYP-selective when DiFMUP is used in the assay, but not when the peptide is used
IC50 [5, 9]: 25 ± 1 µM
IC50 [5, 10]: 61 ± 1 µM
IC50 ([6]; substrate DiFMUP): > 70 µM
IC50 [7, 11]: 45 ± 1 µM
IC50 [7, 12]: > 80 µM
IC50 ([8]; substrate DiFMUP): 20 ± 2 µM

SMILES: O=S(=O)(O)c1ccc([P+]([Au-][Cl])(c2ccccc2)c2ccc(S(=O)(=O)O)cc2)cc1 [Compound 18, 4,4′-(Phenylphosphinidene)bis(benzenesulfonic acid)-Au(I)-Cl]
TCPTP versus PTP1B inhibition in comparative library screen [1]: slightly TCPTP selective with peptide 2
selectivity for TCPTP (over PTP1B) [1]: approximately 2 fold
IC50 ([1]; read-out: IC50 TCPTP (DiFMUP)): 16 ± 1 µM
IC50 ([1]; read-out: IC50 TCPTP (peptide 2)): 7.5 ± 0.3 µM
selectivity between PTP1B and TCPTP in dose-response screens [2]: no significant selectivity with DiFMUP
IC50 ([2]; read-out: IC50 PTP1B (DiFMUP)): 16 ± 1 µM
IC50 ([2]; read-out: IC50 PTP1B (peptide 2)): 15 ± 1 µM
selectivity for LYP over PTP-PEST in dose-response screens [5]: selective for LYP over the ~ 70% identical PTP-PEST
IC50 [5, 9]: 2 ± 0.1 µM
IC50 [5, 10]: 0.85 ± 0.05 µM
IC50 [6]: 26 ± 1 µM
IC50 ([7]; read-out: IC50 PEST (DiFMUP)): 39 ± 1 µM
IC50 ([7]; read-out: IC50 PEST (peptide 1)): 10 ± 2 µM
IC50 [8]: 16 ± 2 µM

Source: paper PMC2801581 (Journal of medicinal chemistry, 2009)
